Source: patent US20020016330A1, “Materials and methods for killing nematodes and nematode eggs” (priority 2000, published 2002)

Test system: Caenorhabditis elegans
Test: C. elegans L1 nematicidal dose response, 5 day visual viability score (3-fold dilutions)
Assay type: in vivo
Set-up: key: Dead: only stiff L1s (no movement); Dead (L4): worms are dead, but at a later larval stage; majority of worms are L1 (based on size); majority of worms are L2 (based on size); majority of worms are L3 (based on size); majority of worms are L4 (based on size); AD: majority of worms are adult; #AD: 5 adult worms or less; B!: sterile (0-25 progeny); B: low broodsize (25-100 progeny); ˜B: moderate broodsize (100-250 progeny); <: reduced broodsize (250-500 progeny); OK: no effect (˜1000+ progeny)
Conditions: scored day 5; for 5 Day Visual Score V6: 0.3 μM; for 5 Day Visual Score V4: 2.6 μM; for 5 Day Visual Score V2: 23.3 μM; for 5 Day Visual Score V1: 70 μM; for 5 Day Visual Score V5: 0.9 μM; for 5 Day Visual Score V3: 7.8 μM
Method: Caenorhabditis elegans adults were grown on Nematode Growth Medium (NGM) until they produced eggs, then the adults were removed.
The eggs were allowed to hatch, and the L1 larvae collected. See The Nematode Caenorhabditis elegans (1988) Cold Spring Harbor Laboratory Press. Using a Matrix Programmable Pipette, the L1s were distributed into 96-well tissue culture plates, 20 L1 in 50 μl NGM per well. Antibiotic/Antimyotic was added to each well, and 1% by weight E. coli strain HB101. The subject anthelmintic compounds were stored at 5 mM in 100% DMSO. 0.7 μl of compounds 1-31 were added to the left-most column of wells to yield a final concentration of 70 μM in 1.4% DMSO, with 1.4% DMSO only as the control. The compounds were then subjected to 5 more 3-fold dilutions from left to right to yield 6 column concentrations of 70 μM, 23.3 μM, 7.8 μM, 2.6 μM, 0.9 μM, and 0.3 μM. Plates were stored in air-tight Rubbermaid plastic boxes at 20° C. The nematodes had cleared all control wells by day 4, and nematode viability was scored by visual examination under a 100× dissecting microscope on day 5. A visual viability scoring system was used as follows:
Column VI has a compound concentration of 70 μM with sequential 3-fold dilutions reported in columns V2, V3, V4, V5, and V6, respectively, such that the V6 concentration was 0.3 μM.
The nematicidal activity of anthelmintic Compositions 48-68 were determined in accordance with the procedure outlined in Example 2.

O=C(Nc1ccc(OC(F)(F)F)cc1)NC1CCC(c2nc(-c3ccccc3)no2)CC1 (stereo not drawn) [AKC 107]
5 Day Visual Score V6: L2/Dead(L
5 Day Visual Score V4: Dead(L4)
5 Day Visual Score V2: Dead(L2/L3)
5 Day Visual Score V1: Dead

CCC(=O)C(C)C(Nc1cc(Br)c(C)c(Br)c1)c1ccc(C)o1 (stereo not drawn) [AKC 131]
5 Day Visual Score V5: #AD/˜B
5 Day Visual Score V4: #AD/˜B
5 Day Visual Score V3: #AD/˜B
5 Day Visual Score V2: L1
5 Day Visual Score V1: Dead

CCOc1cccc(C2ON=C(c3ccccc3OCC)C2C(=O)NCc2ccc(OC(F)(F)F)cc2)c1 (stereo not drawn) [AKC 125]
5 Day Visual Score V4: L2
5 Day Visual Score V3: L2
5 Day Visual Score V2: L2/Dead(L4)
5 Day Visual Score V1: L2/Dead(L3)

O=C(Nc1ccc(Br)cc1)N1CCC(c2nc(-c3ccccc3)no2)CC1 [AKC 108]
5 Day Visual Score V4: L1
5 Day Visual Score V3: L1
5 Day Visual Score V2: Dead
5 Day Visual Score V1: Dead

CC(C)(C)C1=NOC(c2ccc(-c3ccccc3)cc2)C1C(=O)NCCc1ccccc1F (stereo not drawn) [AKC 120]
5 Day Visual Score V6: OK (no effect (˜1000+ progeny))
5 Day Visual Score V5: #AD/˜B
5 Day Visual Score V3: L1
5 Day Visual Score V1: L1

CCCCOc1ccc(-c2noc(C3CCC(NC(=O)c4ccc5c(c4)OCO5)CC3)n2)cc1 (stereo not drawn) [AKC 103]
5 Day Visual Score V5: L4/#AD/B
5 Day Visual Score V3: Dead(L4)
5 Day Visual Score V2: Dead(L3/L4

Fc1ccc(N2CCN(c3nc(NCc4ccc(C(F)(F)F)cc4)ns3)CC2)cc1 [AKC 135]
5 Day Visual Score V2: L1
5 Day Visual Score V1: Dead

O=C(NCCCCCc1nc(-c2ccccc2)no1)Nc1ccc(OC(F)(F)F)cc1 [AKC 115]
5 Day Visual Score V5: Dead(L2/L
5 Day Visual Score V4: Dead(L2)
5 Day Visual Score V3: L2/Dead(L2)
5 Day Visual Score V2: Dead(L2/L3)
5 Day Visual Score V1: Dead

O=C(NCC1CCC(c2nc(-c3ccccc3)no2)CC1)Nc1ccc(OC(F)(F)F)cc1 (stereo not drawn) [AKC 113]
5 Day Visual Score V6: L4/#AD/B
5 Day Visual Score V4: Dead(L2/L
5 Day Visual Score V3: Dead
5 Day Visual Score V2: Dead
5 Day Visual Score V1: Dead

CCOc1ccc(C2ON=C(c3ccc(F)cc3)C2C(=O)NCCc2ccc(F)cc2)cc1 (stereo not drawn) [AKC 122]
5 Day Visual Score V6: OK (no effect (˜1000+ progeny))
5 Day Visual Score V2: L1
5 Day Visual Score V1: Dead

Cc1ccc(C(CC(=O)c2ccccc2)Nc2ccc(I)cc2)o1 (stereo not drawn) [AKC 128]
5 Day Visual Score V6: OK (no effect (˜1000+ progeny))
5 Day Visual Score V5: #AD/˜B
5 Day Visual Score V4: L1
5 Day Visual Score V3: Dead
5 Day Visual Score V2: Dead
5 Day Visual Score V1: Dead

CCOc1ccccc1C1=NOC(c2cccc3ccccc23)C1C(=O)NCc1ccc(OC(F)(F)F)cc1 (stereo not drawn) [AKC 105]
5 Day Visual Score V5: L2/Dead(L
5 Day Visual Score V4: L2/Dead(L
5 Day Visual Score V3: L2/Dead(L3)
5 Day Visual Score V2: L2/Dead(L3)
5 Day Visual Score V1: L2/Dead(L3)

O=C(Nc1ccc(Br)cc1)NC1CCC(c2nc(-c3ccccc3)no2)CC1 (stereo not drawn) [AKC 114]
5 Day Visual Score V4: L3/Dead(L
5 Day Visual Score V3: L3
5 Day Visual Score V2: L3/Dead(L4)
5 Day Visual Score V1: Dead

O=C(NCCc1ccccc1F)C1C(c2ccccc2Cl)=NOC1c1ccc(-c2ccccc2)cc1 (stereo not drawn) [AKC 110]
5 Day Visual Score V6: L1
5 Day Visual Score V5: L1
5 Day Visual Score V4: L1
5 Day Visual Score V3: L1
5 Day Visual Score V2: L1
5 Day Visual Score V1: L1
